Assay results reported in patent EP0326331B1, “Substituted quinolines and cinnolines” (Dow AgroSciences LLC, priority 1988, dated 1989).

Legend:
Assay type in all cases: in vivo
[1] = test system: Venturia inaequalis (apple scab); assay: Test 1 greenhouse foliar spray screen, apple scab on apple seedling; details: disease control rating, foliar spray on apple seedling, 400 ppm (+++ at 100 ppm)
[2] = test system: Puccinia recondita tritici (leaf rust); assay: Test 1 greenhouse foliar spray screen, leaf rust on wheat; details: disease control rating, foliar spray on wheat, 400 ppm (+++ at 100 ppm)
[3] = test system: Erysiphe graminis tritici (powdery mildew); assay: Test 1 greenhouse foliar spray screen, powdery mildew on wheat; details: disease control rating, foliar spray on wheat, 400 ppm (+++ at 100 ppm)
[4] = test system: Pseudoperonospora cubensis (downy mildew); assay: Test 1 greenhouse foliar spray screen, downy mildew on squash; details: for DOWN MDEW: disease control rating, foliar spray on squash, 400 ppm (+++ at 100 ppm)
[5] = test system: Twospotted spider mites (Tetranychus urticae Koch); assay: Mite/insect screen, SM; details: for mortality at 200 ppm / mortality at 400 ppm: Tetranychus urticae, read-out: SM RESULTS %; for mortality at 400 ppm: SM & MA RATE 400 PPM
Summary of the method: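 Activity is expressed as percent mortality at the indicated spray concentrations. Plants are sprayed to runoff on upper and lower leaf surfaces with aqueous dilutions of an acetone/alcohol emulsifiable formulation, then dried for one hour.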

[6] = test system: Cercospora beticola (leaf spot); assay: Test 1 greenhouse foliar spray screen, leaf spot on sugar beet; details: disease control rating, foliar spray on sugar beet, 400 ppm (+++ at 100 ppm)
[7] = test system: melon aphids (Aphis gossypii Glover); assay: Mite/insect screen, MA; details: percent mortality, SAW; for mortality at 200 ppm / mortality at 400 ppm: Aphis gossypii, read-out: MA RESULTS %; for mortality at 400 ppm: SM & MA RATE 400 PPM
Summary of the method: (§1)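 Compounds dissolved in 50:50 acetone/alcohol containing sulfonate/nonionic emulsifier blends, then diluted with water to the indicated concentrations. Leaves sprayed on both surfaces to runoff at 10 psi and dried one hour. Percent mortality scored after standard exposure periods.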

[8] = test system: Botrytis cinerea (gray mold); assay: Test 1 greenhouse foliar spray screen, gray mold on grape berries; details: disease control rating, spray on grape berries, 400 ppm (+++ at 100 ppm)
[9] = test system: Septoria tritici (leaf blotch); assay: Test 1 greenhouse foliar spray screen, leaf blotch on wheat; details: disease control rating, foliar spray on wheat, 400 ppm (+++ at 100 ppm)
corn rootworm = assay: Mite/insect screen, CRW; details: percent mortality, read-out: CRW RESULTS %; for mortality at 12 ppm: CRW RATE 12.00 PPM; for mortality at 24 ppm: CRW RATE 24.00 PPM
Summary of the method: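 Compounds were dissolved in 50:50 acetone/alcohol containing sulfonate/nonionic emulsifier blends (23 g/L plus 13 g/L), then diluted with water to the test concentrations. Percent mortality was scored after standard exposure periods.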

[10] = test system: Pyricularia oryzae (rice blast); assay: whole plant or invertebrate; details: disease control rating, foliar spray on rice, 400 ppm (+++ at 100 ppm)
[11] = test system: southern armyworm (Spodopetra eridania Cramer); assay: Mite/insect screen, SAW; details: percent mortality, SAW; for mortality at 200 ppm / mortality at 400 ppm: Spodoptera eridania, read-out: SAW RESULTS %; for mortality at 400 ppm: SM & MA RATE 400 PPM
Summary of the method: as §1

[12] = percent mortality, SAW, SM & MA RATE 200 PPM
[13] = summary statement in the description

Row | Compound | APPL SCAB [1] | LEAF RUST [2] | POWD MDEW [3] | DOWN MDEW [4] | mortality at 200 ppm [5, 12] [%] | LEAF SPOT [6] | mortality at 200 ppm ([7]; SM & MA RATE 200 PPM) [%] | GRAY MOLD [8] | LEAF BLOT [9] | mortality at 12 ppm (corn rootworm) [%] | RICE BLAST [10] | mortality at 200 ppm ([11]; SM & MA RATE 200 PPM) [%] | mortality at 400 ppm ([5]; percent mortality, SAW) [%] | mortality at 400 ppm [7] [%] | mortality at 24 ppm (corn rootworm) [%] | mortality at 400 ppm [11] [%] | further results
1 | Fc1cc(F)c2nccc(NCCc3ccccc3)c2c1 [Example 7, 6,8-difluoro-N-(2-phenylethyl)-4-quinolinamine] | - (0-19% control at 400 ppm) | +++ (90-100% control at 100 ppm) | + (20-89% control at 400 ppm) | +++ (90-100% control at 100 ppm) | 0 | - (0-19% control at 400 ppm) | 0 | - (0-19% control at 400 ppm) | +++ (90-100% control at 100 ppm) | 0 | + (20-89% control at 400 ppm) | 0 |  |  |  |  | 
2 | Fc1ccc2c(NCCc3ccccc3)ccnc2c1 [Example 8, 7-fluoro-N-(2-phenylethyl)-4-quinolinamine] | - (0-19% control at 400 ppm) | + (20-89% control at 400 ppm) | + (20-89% control at 400 ppm) | +++ (90-100% control at 100 ppm) | 0 | +++ (90-100% control at 100 ppm) | 0 | - (0-19% control at 400 ppm) | + (20-89% control at 400 ppm) | 0 | ++ (90-100% control at 400 ppm) | 100 |  |  |  |  | 
3 | Fc1ccc2nccc(NCCc3ccccc3)c2c1 [Example 9, 6-fluoro-N-(2-phenylethyl)-4-quinolinamine] | - (0-19% control at 400 ppm) | + (20-89% control at 400 ppm) | + (20-89% control at 400 ppm) | +++ (90-100% control at 100 ppm) | 0 | - (0-19% control at 400 ppm) | 0 | - (0-19% control at 400 ppm) | - (0-19% control at 400 ppm) | 0 | + (20-89% control at 400 ppm) | 0 |  |  |  |  | 
4 | Fc1cccc2c(NCCc3ccc(I)cc3)ccnc12 [Example 11, 8-fluoro-N-[2-(4-iodophenyl)ethyl]-4-quinolinamine] | - (0-19% control at 400 ppm) | +++ (90-100% control at 100 ppm) | - (0-19% control at 400 ppm) | ++ (90-100% control at 400 ppm) | 0 | +++ (90-100% control at 100 ppm) | 0 | - (0-19% control at 400 ppm) | - (0-19% control at 400 ppm) | 0 | ++ (90-100% control at 400 ppm) | 80 | 0 | 0 | 60 | 100 | activity as miticides [5, 13]: particularly excellent activity
5 | Fc1cc(F)c2nccc(NCCc3ccc(Br)cc3)c2c1 [Example 12, N-[2-(4-bromophenyl)ethyl]-6,8-difluoro-4-quinolinamine] | - (0-19% control at 400 ppm) | +++ (90-100% control at 100 ppm) | + (20-89% control at 400 ppm) | ++ (90-100% control at 400 ppm) | 0 | +++ (90-100% control at 100 ppm) | 0 | - (0-19% control at 400 ppm) | ++ (90-100% control at 400 ppm) | 0 | ++ (90-100% control at 400 ppm) | 0 | 0 | 0 | 40 | 100 | 
6 | FC(F)(F)c1cccc2c(NCCc3ccc(Br)cc3)ccnc12 [Example 13, N-[2-(4-bromophenyl)ethyl]-8-(trifluoromethyl)-4-quinolinamine] | - (0-19% control at 400 ppm) | ++ (90-100% control at 400 ppm) | - (0-19% control at 400 ppm) | ++ (90-100% control at 400 ppm) | 0 | - (0-19% control at 400 ppm) | 0 | - (0-19% control at 400 ppm) | - (0-19% control at 400 ppm) | 0 | ++ (90-100% control at 400 ppm) | 0 | 0 | 0 | 0 | 0 | 
7 | Cc1ccc2nccc(NCCc3ccc(Cl)cc3)c2c1 [Example 14, N-[2-(4-chlorophenyl)ethyl]-6-methyl-4-quinolinamine] | - (0-19% control at 400 ppm) | + (20-89% control at 400 ppm) | - (0-19% control at 400 ppm) | +++ (90-100% control at 100 ppm) | 0 | +++ (90-100% control at 100 ppm) | 0 | - (0-19% control at 400 ppm) | - (0-19% control at 400 ppm) | 0 | + (20-89% control at 400 ppm) | 0 | 0 | 0 | 0 | 0 | activity against downy mildew [4, 13]: particularly excellent activity
8 | Cc1ccc(CCNc2ccnc3c(F)cccc23)cc1 [Example 71, 8-fluoro-N-[2-(4-methylphenyl)ethyl]-4-quinolinamine] | - (0-19% control at 400 ppm) | +++ (90-100% control at 100 ppm) | + (20-89% control at 400 ppm) | +++ (90-100% control at 100 ppm) | 0 | +++ (90-100% control at 100 ppm) | 0 | - (0-19% control at 400 ppm) | + (20-89% control at 400 ppm) |  | + (20-89% control at 400 ppm) | 0 |  |  |  |  | SM RESULTS % [5, 12]: 0%; MA RESULTS % ([7]; SM & MA RATE 200 PPM): 0%; SAW RESULTS % ([11]; SM & MA RATE 200 PPM): 0%
